Measured values from patent US20120172344A1, “INSULIN-PRODUCING CELL INDUCER, GLUCOSE INTAKE ENHANCER, AND THERAPEUTIC AGENT FOR DIABETES OR DIABETES COMPLICATIONS” (KYUSHU UNIVERSITY, NATIONAL UNIVERSITY CORPORATION, priority 2009, published 2012).

Columns and labels:
Format in all cases: in vivo, mouse
[1] = test system: Tg23 mice; experiment: Experimental Example 5: β-cell neogenesis and electron microscopy of pancreas
Method: Pancreases were fixed in 10% formalin, embedded in paraffin, and sliced into sections having a thickness of 2 μm. The sections were immunostained with overnight incubation at 4° C. in dilution solutions containing various primary antibodies described below.
Primary antibodies: Anti-insulin antibody (dilution rate 1:500; DAKO), anti-glucagon antibody (dilution rate 1:500; Linco Research Inc.), anti-DBA antibody (dilution rate 1:300; Vector Laboratories), anti-Pdx-1 antibody (dilution rate 1:1000; kindly provided by Chris V. E. Wright, Vanderbilt University), anti-collagen type IV antibody (dilution rate 1:250; PROGEN Biotechnik), and anti-Glut 4 antibody (dilution rate 1:1000; Chemicon).
The primary antibodies were detected by immunofluorescence labeling using secondary antibodies conjugated with Alexa 488 or Alexa 568 (1:200; Molecular Probes); third antibody conjugated with biotin-labeled secondary antibodies and streptavidin Alexa 488 or Alexa 568 (1:800; Vector Laboratories); or by an immunoperoxidase staining method using biotin-labeled secondary antibodies. Staining was visualized with diaminobenzidine. […] Immunofluorescence intensity was measured in random fields (n=30/section) using LSM Zeiss software, and the result was expressed as average pixel intensity.
All pancreatic islets, glucagon positive cells, and insulin-positive cells existing on a single pancreas section were photographed on a Keyence Biorevo microscope, and five to seven sections corresponding to areas that are at least 150 μm apart from one another were evaluated for a single pancreas (a single group includes five to eight males and six to nine females). Areas of β-cells and pancreatic islets were measured for each of the sections using Image Joint and Dynamic Cell Count software (Keyence). […]
Experimental Example 5: Effect of estradiol administration (III) Tg23 mice (23-24 weeks of age) were divided into two groups (each group: n=4 to 10): an estradiol administration group and a control group. […] Then, blood glucose levels of these mice were monitored every week. […]

[2] = test system: muscles (soleus muscle) of Tg23 mice; experiment: Experimental Example 3: glucose (2-deoxy-D-glucose) intake of soleus muscles; conditions: Tg mice, Tx-E group vs Ct group, 20-40 weeks after the administration
Method: Mice were sacrificed, and extensor digitorum longus (EDL) muscles and soleus muscles were quickly removed and processed. Both ends of each of the muscles were tied with suture (silk 4-0), and mounted on an incubation apparatus. First, the muscles were preincubated for 20 minutes in 6 ml of Krebs-Ringer bicarbonate (KRB) buffer (117 mM NaCl, 4.7 mM KCl, 2.5 mM CaCl2, 1.2 mM KH2PO4, 1.2 mM MgSO4, 24.6 mM NaHCO3, pH 7.5) containing 2 mM pyruvate. Then, the muscles were incubated in KRB buffer in presence or absence of insulin.
Immediately after muscle incubation, the muscles were transferred to KRB buffer containing 1 mM 2-deoxy-D-[^3H]glucose (1.5 μCi/ml) and 7 mM D-[^14C]mannitol (0.3 μCi/ml) (PerkinElmer Life Sciences) at 30° C., and incubated again for 10 minutes. When using insulin, a buffer containing insulin was used for incubation in a similar manner.
Glucose transport was terminated by dipping the muscles in KRB buffer containing 80 μmol/L cytochalasin B at 4° C., and then the muscles were frozen in liquid nitrogen. The muscles were weighed, and digested by incubating in 250 μl of 1 M NaOH at 80° C. for 10 minutes. Digests were neutralized with 250 μl of 1 M HCl. […] Radioactivity in aliquots of the digested muscle was determined by liquid scintillation counting for dual labels, and extracellular and intracellular spaces were calculated. […]

[3] = test system: Tg23 mice; experiment: Experimental Example 4: blood glucose, blood parameters, food consumption and oral glucose tolerance test; conditions: for blood glucose level: Tg23 mice 11 weeks of age
Method: Blood glucose levels were measured by an enzyme-electrode method with ONE TOUCH UltraVue (Johnson & Johnson K.K.) on whole blood taken from tail veins of subject animals.
Immediately before collecting organs, blood parameters were measured using various methods and measurement kits described below in blood collected from the hearts of animals anesthetized with nembutal.
(c) Blood urea nitrogen (BUN): Urease UV method,
(d) Aspartate aminotransferase (AST) and alanine aminotransferase (ALT): JSCC standardization method,
(e) Serum insulin concentration: Enzyme-linked immunosorbent assay kit (Morinaga Institute of Biological Science),
(f) Serum glucagon concentration: YK142 Mouse […] EIA kit (Yanaihara Institute Inc.),
(g) Total serum cholesterol level: Enzymatic assay reagent (Wako Pure Chemical Industries),
After a 16-hour fast, mice were administered with glucose (1 g/kg of body weight) by gavage. Blood samples were collected from the tail vein at 0, 15, 30, 60, 90, and 120 minutes after the oral administration, and blood glucose levels were measured. In addition, blood samples were collected from the tail vein in a similar manner at 0, 15, and 30 minutes after the oral administration, and serum insulin concentrations were measured.
Subject mice were individually housed in metabolic cages for four days to assess food consumption (g/24 h) and water consumption (ml/24 h). During measurement, food and water were supplied to the mice ad libitum. Measurements were repeated three times for each group.
Tg23 mice (11 weeks of age) were divided into four groups (each group: n=4 to 10): an estradiol administration group (E only group), a testectomy group (Tx only group), a testectomy-and-estradiol administration group (Tx+E group), and a control group (Tg group). For E only group, sham surgery of testectomy (Tx) was performed, and a single pellet of 17β-estradiol (E) was subcutaneously administered at the nape of the neck. […] For Tx+E group, testectomy was performed, and a single pellet of 17β-estradiol was subcutaneously administered at the nape of the neck.
Then, blood glucose levels (mg/dl) were measured every week for E only group, Tx only group, Tx+E group, and Tg group, and wild-type mice (WT). In addition, measurements were performed with Tx+E group, Tg group, and wild-type mice (WT), for serum insulin concentrations (pg/mL), serum glucagon concentrations (pg/mL), blood urea nitrogen (BUN) concentrations (mg/dL), total serum cholesterol levels ([…]), aspartate aminotransferase (AST)/alanine aminotransferase (ALT), and food consumption per day (g/day). Furthermore, oral glucose tolerance test was performed, and changes in blood glucose level and serum insulin concentration over time were measured.

[4] = Tx+E mice, glucose 1 g/kg by gavage after 16-hour fast

C[C@]12CC[C@@H]3c4ccc(O)cc4CC[C@H]3[C@@H]1CC[C@@H]2O [estradiol, 17β-estradiol]
neogenesis of β-cells (insulin-producing cells and Pdx-1 in pancreatic duct epithelial cells) ([1]; Tg23 mice 23-24 weeks of age, Tx+E group vs Tg group): enhanced
mature β-cells ([1]; Treatment group, 48 weeks of age, electron microscope): formed
insulin secretory granules in pancreatic tissue (electron microscope) ([1]; Tx+E group (Treatment), 48 weeks of age): observed
amount of glucose intake of muscles [2]: significantly increases
blood glucose level ([3]; E only group (sham surgery + 17β-estradiol pellet s.c.)): effective for reducing blood glucose level
blood glucose level ([3]; Tx+E group (testectomy + 17β-estradiol pellet s.c.)): effective for reducing blood glucose level
AST/ALT ([3]; Tx+E mice): returned to normal
blood urea nitrogen (BUN) ([3]; Tx+E mice): returned to normal
food consumption per day ([3]; Tx+E mice): returned to normal
serum glucagon ([3]; Tx+E mice): returned to normal
serum insulin level ([3]; Tx+E mice): largely increased
total serum cholesterol ([3]; Tx+E mice): returned to normal
blood glucose level in oral glucose tolerance test [3, 4]: returned to basal level after a time point of 180 minutes
insulin secretion in oral glucose tolerance test [3, 4]: increased
